Measured values: PubChem BioAssay (NCI)
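All cell lines were grown in 96-well plates and treated with compound for 48 hours. The concentration for full growth arrest is given as TGI.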

Tests used:
Experiment in all cases: DTP human tumour cell line panel, 48 h
[1] = test system: 786-0 renal
[2] = test system: A549 NSCLC
[3] = test system: ACHN renal
[4] = test system: CAKI-1 renal
[5] = test system: CCRF-CEM leukemia
[6] = test system: COLO 205 colon
[7] = test system: DU-145 prostate
[8] = test system: EKVX NSCLC
[9] = test system: HCT-116 colon
[10] = test system: HCT-15 colon
[11] = test system: HL-60(TB) leukemia
[12] = test system: HOP-62 NSCLC
[13] = test system: HOP-92 NSCLC
[14] = test system: HS 578T breast
[15] = test system: HT29 colon
[16] = test system: IGROV1 ovarian
[17] = test system: K-562 leukemia
[18] = test system: KM12 colon
[19] = test system: LOX IMVI melanoma
[20] = test system: M14 melanoma
[21] = test system: MALME-3M melanoma
[22] = test system: MCF7 breast
[23] = test system: MDA-MB-231 breast
[24] = test system: MDA-MB-435
[25] = test system: MDA-N
[26] = test system: MOLT-4 leukemia
[27] = test system: NCI-H226 lung
[28] = test system: NCI-H23 lung
[29] = test system: NCI-H460 lung
[30] = test system: NCI-H522 lung
[31] = test system: NCI/ADR-RES ovarian
[32] = test system: OVCAR-3 ovarian
[33] = test system: OVCAR-4 ovarian
[34] = test system: OVCAR-5 ovarian
[35] = test system: OVCAR-8 ovarian
[36] = test system: PC-3 prostate
[37] = test system: RPMI-8226 leukemia
[38] = test system: RXF 393 renal
[39] = test system: SF-268 CNS
[40] = test system: SF-295 CNS
[41] = test system: SF-539 CNS
[42] = test system: SK-MEL-2 melanoma
[43] = test system: SK-MEL-28 melanoma
[44] = test system: SK-MEL-5 melanoma
[45] = test system: SN12C renal
[46] = test system: SNB-19 CNS
[47] = test system: SNB-75 CNS
[48] = test system: SR leukemia
[49] = test system: SW-620 colon
[50] = test system: T-47D breast
[51] = test system: TK-10 renal
[52] = test system: U251 CNS
[53] = test system: UACC-257 melanoma
[54] = test system: UACC-62 melanoma
[55] = test system: UO-31 renal
[56] = test system: A498 renal
[57] = test system: HCC-2998 colon
[58] = test system: SK-OV-3 ovarian

SMILES: COc1ccc2nc(/C(N)=C\C#N)ccc2c1
- TGI [1]: > 100 µM
- TGI [2]: > 100 µM
- TGI [3]: > 100 µM
- TGI [4]: > 100 µM
- TGI [5]: > 100 µM
- TGI [6]: > 100 µM
- TGI [7]: > 100 µM
- TGI [8]: > 100 µM
- TGI [9]: > 100 µM
- TGI [10]: > 100 µM
- TGI [11]: 46.5 µM
- TGI [12]: > 100 µM
- TGI [13]: > 100 µM
- TGI [14]: > 100 µM
- TGI [15]: > 100 µM
- TGI [16]: > 100 µM
- TGI [17]: > 100 µM
- TGI [18]: > 100 µM
- TGI [19]: > 100 µM
- TGI [20]: > 100 µM
- TGI [21]: > 100 µM
- TGI [22]: > 100 µM
- TGI [23]: > 100 µM
- TGI [24]: > 100 µM
- TGI [25]: > 100 µM
- TGI [26]: 88.5 µM
- TGI [27]: > 100 µM
- TGI [28]: > 100 µM
- TGI [29]: > 100 µM
- TGI [30]: > 100 µM
- TGI [31]: > 100 µM
- TGI [32]: > 100 µM
- TGI [33]: > 100 µM
- TGI [34]: > 100 µM
- TGI [35]: > 100 µM
- TGI [36]: > 100 µM
- TGI [37]: > 100 µM
- TGI [38]: > 100 µM
- TGI [39]: > 100 µM
- TGI [40]: > 100 µM
- TGI [41]: > 100 µM
- TGI [42]: > 100 µM
- TGI [43]: > 100 µM
- TGI [44]: > 100 µM
- TGI [45]: > 100 µM
- TGI [46]: > 100 µM
- TGI [47]: > 100 µM
- TGI [48]: > 100 µM
- TGI [49]: > 100 µM
- TGI [50]: 76.2 µM
- TGI [51]: > 100 µM
- TGI [52]: > 100 µM
- TGI [53]: > 100 µM
- TGI [54]: > 100 µM
- TGI [55]: > 100 µM

SMILES: CSC(SC)=C(C(=O)O)P(=O)(O)O
- TGI [1]: > 100 µM
- TGI [56]: > 100 µM
- TGI [2]: > 100 µM
- TGI [3]: > 100 µM
- TGI [4]: > 100 µM
- TGI [5]: > 100 µM
- TGI [6]: > 100 µM
- TGI [7]: > 100 µM
- TGI [8]: > 100 µM
- TGI [57]: > 100 µM
- TGI [9]: > 100 µM
- TGI [10]: > 100 µM
- TGI [11]: > 100 µM
- TGI [12]: > 100 µM
- TGI [13]: > 100 µM
- TGI [14]: > 100 µM
- TGI [15]: > 100 µM
- TGI [16]: > 100 µM
- TGI [18]: > 100 µM
- TGI [19]: > 100 µM
- TGI [20]: > 100 µM
- TGI [21]: > 100 µM
- TGI [22]: > 100 µM
- TGI [23]: > 100 µM
- TGI [25]: > 100 µM
- TGI [26]: > 100 µM
- TGI [27]: > 100 µM
- TGI [28]: > 100 µM
- TGI [29]: > 100 µM
- TGI [30]: > 100 µM
- TGI [31]: > 100 µM
- TGI [32]: > 100 µM
- TGI [33]: > 100 µM
- TGI [34]: > 100 µM
- TGI [35]: > 100 µM
- TGI [36]: > 100 µM
- TGI [38]: > 100 µM
- TGI [39]: > 100 µM
- TGI [40]: > 100 µM
- TGI [41]: > 100 µM
- TGI [42]: > 100 µM
- TGI [43]: > 100 µM
- TGI [44]: > 100 µM
- TGI [58]: > 100 µM
- TGI [45]: > 100 µM
- TGI [46]: > 100 µM
- TGI [48]: > 100 µM
- TGI [49]: > 100 µM
- TGI [50]: > 100 µM
- TGI [51]: > 100 µM
- TGI [53]: > 100 µM
- TGI [54]: > 100 µM
